In ChEMBL document CHEMBL2429720, “Synthesis, antimicrobial, and cytotoxicity studies of novel sulfur-linked quinolinecoumarin bisheterocycles” (Med Chem Res, 2013) one finds IC50, zone of inhibition and MIC data, which are given here for 21 compounds.

The subject of assay [1] is NIH3T3. Kind of assay: Cytotoxicity against mouse NIH/3T3 cells after 48 hrs by MTT assay. In kind it is cell-based. The conditions noted are these: NIH3T3, 48 h.
The test system of assay [2] is Escherichia coli. Briefly: Antibacterial activity against Escherichia coli ATCC 25922 at 100 ug/disk after 24 hrs by agar disk diffusion method. In kind it is functional. The conditions noted are these: ATCC 25922, 24 h, read-out: DIZ. In general terms: A growth-free zone around the sample is the usual read-out of agar diffusion tests.
The subject of assay [3] is Candida albicans. Kind of assay: Antifungal activity against Candida albicans ATCC 90028 after 18 to 24 hrs by agar dilution method. It is filed as functional. (In agar dilution, organisms are placed on agar that contains the substance at set levels.)
Assay [4] has as its system Candida albicans. Briefly: Antifungal activity against Candida albicans ATCC 90028 at 100 ug/disk after 48 hrs by agar disk diffusion method. The conditions noted are these: ATCC 90028, 48 h, read-out: DIZ. It is filed as functional.
The subject of assay [5] is Staphylococcus aureus. Kind of assay: Antibacterial activity against Staphylococcus aureus ATCC 11632 at 100 ug/disk after 24 hrs by agar disk diffusion method. The conditions noted are these: ATCC 11632, 24 h, read-out: DIZ. It is filed as functional.
Assay [6] has as its system Escherichia coli. Kind of assay: Antibacterial activity against Escherichia coli ATCC 25922 after 18 to 24 hrs by agar dilution method. In kind it is functional.
The test system of assay [7] is Staphylococcus aureus. Kind of assay: Antibacterial activity against Staphylococcus aureus ATCC 11632 after 18 to 24 hrs by agar dilution method. In kind it is functional.
For assay [8], the system named is Staphylococcus aureus. Briefly: microbe, parasite or virus in culture. The conditions noted are these: ATCC 11632, 24 h, read-out: DIZ.
Description: Antibacterial activity against Staphylococcus aureus ATCC 11632 at 10 ug/disk after 24 hrs by agar disk diffusion method
Assay [9] concerns Escherichia coli. Kind of assay: microbe, parasite or virus in culture. The conditions noted are these: ATCC 25922, 24 h, read-out: DIZ.
Description: Antibacterial activity against Escherichia coli ATCC 25922 at 10 ug/disk after 24 hrs by agar disk diffusion method
In assay [10] the test system is Candida albicans. Kind of assay: Antifungal activity against Candida albicans ATCC 90028 at 10 ug/disk after 48 hrs by agar disk diffusion method. It is filed as functional. The conditions noted are these: ATCC 90028, 48 h, read-out: DIZ.

Values after ≈ are worked out from the molar mass of the structure shown. A value given as a limit tells only on which side of the number the result lay.

On to `COC(=O)CSc1c(-c2cccc(Br)c2)nc2ccccc2c1-c1ccccc1`, for which it took 456 µM to reach half-maximal inhibition in [1] (IC50). For the same compound, the values for the zone of inhibition at 100 µg/disc in [2], in [4] and in [5] were 15 mm, 13 mm and 18 mm, respectively. Moreover, the MIC in assay [3], in [6] and in assay [7] was 12.5 µg/mL (≈ 26.9 µM) throughout.
On to `COC(=O)CSc1c(-c2cccc(OC)c2)nc2ccccc2c1-c1ccccc1`, for which the zone of inhibition at 100 µg/disc in assay [2], in [4] and in assay [5] was 15 mm in each case. Further, the MIC (commonly the lowest concentration found to suppress growth) worked out at 25 µg/mL (≈ 60.2 µM) in [3], 12.5 µg/mL (≈ 30.1 µM) in assay [6] and 25 µg/mL (≈ 60.2 µM) in [7].
In the case of `O=c1oc2ccccc2cc1Sc1c(-c2ccccc2)nc2ccccc2c1-c1ccccc1`, the zone of inhibition at 100 µg/disc in assay [2] is 13 mm; in assay [4], 10 mm; in assay [5] it was 12 mm. Further, the MIC in assay [3], in assay [6] and in [7] was 25 µg/mL (≈ 54.6 µM) throughout.
As for `Cc1ccc(-c2nc3ccccc3c(-c3ccccc3)c2Sc2cc3ccccc3oc2=O)cc1`, the figures for the zone of inhibition at 100 µg/disc in [2], in assay [4] and in assay [5] were 13 mm, 12 mm and 10 mm, respectively. The minimum inhibitory concentration (MIC) in assay [3], in assay [6] and in [7] was 25 µg/mL (≈ 53 µM) each time.
For the compound `O=c1oc2ccccc2cc1Sc1c(-c2ccc(Cl)cc2)nc2ccccc2c1-c1ccccc1`, the values for the zone of inhibition at 100 µg/disc in assay [2], in assay [4] and in assay [5] were 12 mm, 15 mm and 12 mm, respectively. The MIC in assay [3], in assay [6] and in assay [7] was 25 µg/mL (≈ 50.8 µM) in each case.
Consider `O=c1oc2ccccc2cc1Sc1c(-c2ccc(Br)cc2)nc2ccccc2c1-c1ccccc1`, for which the zone of inhibition at 100 µg/disc came out at 18 mm in assay [2], 20 mm in assay [4] and 18 mm in assay [5]. The MIC in assay [3], in assay [6] and in assay [7] was 12.5 µg/mL (≈ 23.3 µM) in each case.
With `COc1ccc(-c2nc3ccccc3c(-c3ccccc3)c2Sc2cc3ccccc3oc2=O)cc1`, the figures for the zone of inhibition at 100 µg/disc in assay [2], in assay [4] and in [5] were 12 mm, 12 mm and 16 mm, respectively. In addition, the MIC in assay [3], in [6] and in [7] was 25 µg/mL (≈ 51.3 µM) throughout.
With `O=c1oc2ccccc2cc1Sc1c(-c2ccc([N+](=O)[O-])cc2)nc2ccccc2c1-c1ccccc1`, the zone of inhibition at 100 µg/disc was 15 mm in assay [2], 18 mm in [4] and 15 mm in assay [5]. Also, the MIC is 12.5 µg/mL (≈ 24.9 µM) in [3], 12.5 µg/mL (≈ 24.9 µM) in assay [6] and 25 µg/mL (≈ 49.7 µM) in assay [7].
As to `O=c1oc2ccccc2cc1Sc1c(-c2ccc(-c3ccccc3)cc2)nc2ccccc2c1-c1ccccc1`, the results for the zone of inhibition at 100 µg/disc in assay [2], in [4] and in [5] were less than 10 mm, 10 mm and 10 mm, respectively. Also, the results for the MIC in assay [3], in assay [6] and in [7] were 50 µg/mL (≈ 93.7 µM), 50 µg/mL (≈ 93.7 µM) and 25 µg/mL (≈ 46.8 µM), respectively.
With `O=c1oc2ccccc2cc1Sc1c(-c2ccc3ccccc3c2)nc2ccccc2c1-c1ccccc1`, the zone of inhibition at 100 µg/disc in [2], in assay [4] and in assay [5] was less than 10 mm throughout. Besides, the minimum inhibitory concentration (MIC) in assay [3], in assay [6] and in [7] was 50 µg/mL (≈ 98.5 µM) each time.
As to `COC(=O)CSc1c(-c2ccccc2)nc2ccccc2c1-c1ccccc1`, the zone of inhibition at 100 µg/disc amounted to 15 mm in assay [2], 10 mm in assay [4] and 15 mm in [5]. The MIC in assay [3], in [6] and in [7] was 25 µg/mL (≈ 64.9 µM) in each case.
In the case of `COC(=O)CSc1c(-c2ccc(C)cc2)nc2ccccc2c1-c1ccccc1`, the zone of inhibition at 100 µg/disc is 11 mm in assay [2], 13 mm in assay [4] and 16 mm in [5]. In addition, the MIC in assay [3] stood at 12.5 µg/mL (≈ 31.3 µM); in assay [6], 25 µg/mL (≈ 62.6 µM); in assay [7] it was 12.5 µg/mL (≈ 31.3 µM).
Consider `COC(=O)CSc1c(-c2ccc(Cl)cc2)nc2ccccc2c1-c1ccccc1`, for which the zone of inhibition at 100 µg/disc in assay [2] came to 12 mm; in assay [4] it was 15 mm; in [5] it was 13 mm. The MIC was found to be 25 µg/mL (≈ 59.5 µM) in assay [3], 12.5 µg/mL (≈ 29.8 µM) in assay [6] and 25 µg/mL (≈ 59.5 µM) in assay [7].
As for `COC(=O)CSc1c(-c2ccc(Br)cc2)nc2ccccc2c1-c1ccccc1`, the zone of inhibition at 100 µg/disc was 20 mm in [2], 18 mm in [4] and 18 mm in [5]. Also, the MIC in assay [3] is 12.5 µg/mL (≈ 26.9 µM); in assay [6] it was 6.25 µg/mL (≈ 13.5 µM); in [7] it was 12.5 µg/mL (≈ 26.9 µM).
As for `COC(=O)CSc1c(-c2ccc(OC)cc2)nc2ccccc2c1-c1ccccc1`, the zone of inhibition at 100 µg/disc was 15 mm in assay [2], 12 mm in assay [4] and 15 mm in assay [5]. Further, the MIC turned out to be 25 µg/mL (≈ 60.2 µM) in assay [3], 12.5 µg/mL (≈ 30.1 µM) in assay [6] and 12.5 µg/mL (≈ 30.1 µM) in assay [7].
With `COC(=O)CSc1c(-c2ccc([N+](=O)[O-])cc2)nc2ccccc2c1-c1ccccc1`, the values for the zone of inhibition at 100 µg/disc in [2], in assay [4] and in assay [5] were 18 mm, 20 mm and 16 mm, respectively. For the same compound, the MIC was determined as 12.5 µg/mL (≈ 29 µM) in assay [3], 6.25 µg/mL (≈ 14.5 µM) in assay [6] and 12.5 µg/mL (≈ 29 µM) in assay [7].
Take `COC(=O)CSc1c(-c2ccc(-c3ccccc3)cc2)nc2ccccc2c1-c1ccccc1`: the values for the zone of inhibition at 100 µg/disc in assay [2], in assay [4] and in assay [5] were 10 mm, 10 mm and 12 mm, respectively. Moreover, the results for the MIC in assay [3], in assay [6] and in assay [7] were 50 µg/mL (≈ 108 µM), 25 µg/mL (≈ 54.2 µM) and 25 µg/mL (≈ 54.2 µM), respectively.
Regarding `COC(=O)CSc1c(-c2ccc3ccccc3c2)nc2ccccc2c1-c1ccccc1`, the zone of inhibition at 100 µg/disc in [2], in assay [4] and in [5] was 10 mm each time. Besides, the results for the minimal inhibitory concentration (MIC) in [3], in assay [6] and in assay [7] were 25 µg/mL (≈ 57.4 µM), 50 µg/mL (≈ 115 µM) and 50 µg/mL (≈ 115 µM), respectively.
Regarding `COC(=O)CSc1c(-c2cccc(Cl)c2)nc2ccccc2c1-c1ccccc1`, the zone of inhibition at 100 µg/disc is 18 mm in [2], 15 mm in assay [4] and 18 mm in assay [5]. For the same compound, the MIC in assay [3], in assay [6] and in [7] was 12.5 µg/mL (≈ 29.8 µM) throughout.
For the compound `O=C(O)c1cn(C2CC2)c2cc(N3CCNCC3)c(F)cc2c1=O` [CIPROFLOXACIN], the zone of inhibition at 10 µg/disc in assay [8] turned out to be 25 mm; in assay [9], 28 mm.
Consider `Clc1ccccc1C(c1ccccc1)(c1ccccc1)n1ccnc1` [CLOTRIMAZOLE], for which the MIC in assay [3] was 6.25 µg/mL (≈ 18.1 µM). For the same compound, in assay [10], the zone of inhibition at 10 µg/disc was 28 mm.
